The text below walks through data of article PMC8470988, “Glucosylation of (±)-Menthol by Uridine-Diphosphate-Sugar Dependent Glucosyltransferases from Plants” (Molecules, 2021).

In this assay the target is T1, UGT93Y1 (Camellia sinensis, UniProt A0A4S4F2U3).
T1 construct: gene TEA_008645; UGT 467 aa, fusion about 80 kDa; His29, Asp134, PSPG box Trp342-Gln385, TSS 413-415
Description: UDP Glo glycosyltransferase assay. In kind it is biochemical. Conditions: UDP-glucose as donor; 30 °C; 0-1000 µM menthol; kinetic fit with substrate inhibition, two-site sequential model with identical dissociation constants.

The structures appear in SMILES notation.

T1 sequence (A0A4S4F2U3 entry or part of it): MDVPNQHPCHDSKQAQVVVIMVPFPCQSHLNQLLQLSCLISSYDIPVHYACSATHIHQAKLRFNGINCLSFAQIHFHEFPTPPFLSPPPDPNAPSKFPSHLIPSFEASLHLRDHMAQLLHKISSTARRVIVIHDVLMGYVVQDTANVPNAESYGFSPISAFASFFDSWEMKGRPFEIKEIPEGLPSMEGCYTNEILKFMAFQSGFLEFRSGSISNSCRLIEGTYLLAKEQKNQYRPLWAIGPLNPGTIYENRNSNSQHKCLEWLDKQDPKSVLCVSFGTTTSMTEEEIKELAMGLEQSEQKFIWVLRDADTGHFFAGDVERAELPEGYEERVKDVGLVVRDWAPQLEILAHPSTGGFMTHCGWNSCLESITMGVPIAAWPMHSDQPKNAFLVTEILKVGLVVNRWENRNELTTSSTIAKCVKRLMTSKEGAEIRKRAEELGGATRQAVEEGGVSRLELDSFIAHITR

The compound `CC1CCC(C(C)C)C(O)C1` (racemic) [(±)-menthol] registered a Kd of 453 µM.

The term Kd denotes the concentration at which binding is half-saturated. A lower Kd goes with higher affinity.
